From patent publication US12673944B2, “Compounds having inhibitory activity against glucosylceramide synthase or pharmaceutically acceptable salt thereof, processes for preparing the same, and pharmaceutical compositions comprising the same” (YUHAN CORPORATION, priority 2019, dated 2026)
Where two headings read alike, the source gives them in different places.

Key:
[1] = system: GM1 production in Jurkat cells; assay: cells; format: cell-based
[2] = molecular target: T1, glucosylceramide synthase (GCS) (Homo sapiens, UniProt Q16739); assay: GCS enzyme inhibition assay (A549 cell lysate, NBD C6-ceramide, HPLC fluorescence); format: biochemical; conditions: inhibitory activity against GCS, 37° C., 90 minutes
T1 construct: The obtained supernatant was used; host or cells: A549 cells (lysate supernatant after sonication)
T1 sequence (Q16739 1-394): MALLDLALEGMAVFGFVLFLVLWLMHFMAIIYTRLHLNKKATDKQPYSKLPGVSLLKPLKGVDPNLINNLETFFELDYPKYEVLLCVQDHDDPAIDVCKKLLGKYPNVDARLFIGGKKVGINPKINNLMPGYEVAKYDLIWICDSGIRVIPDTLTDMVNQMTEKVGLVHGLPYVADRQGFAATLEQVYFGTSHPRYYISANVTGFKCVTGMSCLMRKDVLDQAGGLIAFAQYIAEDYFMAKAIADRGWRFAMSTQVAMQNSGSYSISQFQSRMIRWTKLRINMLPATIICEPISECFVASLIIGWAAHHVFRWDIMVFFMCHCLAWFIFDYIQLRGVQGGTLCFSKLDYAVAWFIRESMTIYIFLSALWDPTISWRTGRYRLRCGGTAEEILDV
Experimental: Ibiglustat, known as a GCS inhibitor, was used as a control.
After the cells attached to the culture dish were washed with phosphate buffered saline (PBS), the cells were scraped off with a cell scraper and then centrifuged (4000 rpm, 3 min, 4° C.) to collect the cells in a 50 ml tube. The cell pellets were suspended in a lysis buffer (50 mM HEPES, pH 7.3, containing 1× the protease/phosphatase inhibitor cocktail), lysed by sonication, and then the lysate was centrifuged (13000 rpm, 10 min, 4° C.). The obtained supernatant was used for the quantitative analysis of proteins. The amount of proteins was measured using the BCA protein assay kit, using bovine serum albumin as a standard.
Enzymatic reactions were initiated by sequentially adding the following reaction materials to a 96 deep-well plate. Thereafter, the enzymatic reactions were performed at 37° C. for 90 minutes.
The enzymatic reactions were stopped by adding 100 μl of chloroform/methanol (2:1, v/v). After vortexing for 15 seconds, each mixture was centrifuged (4000 rpm, 10 min, 18° C.). The lower layer (50 μl) was transferred to a new 96 deep-well plate and dried with a reduced concentrator.
Data analysis was performed by the following equations. % Area(Sample)=Area(GlcCer)/[Area(Cer)+Area(GlcCer)]×100 % GCS activity=[Area(Sample)−Area(ibiglustat)]/[Area(DMSO)−Area(ibiglustat)]×100

SMILES	IC50 ([1]; Homo sapiens, Jurkat, 72 h) [nM]	IC50 [2] [nM]	IC50 ([1]; read-out: IC50) [nM]
O=C(NC1CCOc2cc(-c3cccc(F)c3)ccc21)O[C@@H]1CN2CCC1CC2 (stereo partly drawn) [Example 1, (S)-quinuclidin-3-yl (7-(3-fluorophenyl)chroman-4-yl)carbamate]	1.69	2.6	
O=C(NC1CCOc2cc(-c3cccc(Cl)c3)ccc21)O[C@@H]1CN2CCC1CC2 (stereo partly drawn) [Example 2, (S)-quinuclidin-3-yl (7-(3-chlorophenyl)chroman-4-yl)carbamate]	3.47	0.7	
O=C(NC1CCOc2cc(-c3cccc(C(F)(F)F)c3)ccc21)O[C@@H]1CN2CCC1CC2 (stereo partly drawn) [Example 3, (S)-quinuclidin-3-yl (7-(3-(trifluoromethyl)phenyl)chroman-4-yl)carbamate]	2.13	0.7	
O=C(NC1CCOc2cc(-c3cccc(OC(F)(F)F)c3)ccc21)O[C@@H]1CN2CCC1CC2 (stereo partly drawn) [Example 4, (S)-quinuclidin-3-yl (7-(3-(trifluoromethoxy)phenyl)chroman-4-yl)carbamate]	1.08	0.7	
COCOc1ccccc1-c1ccc2c(c1)OCCC2NC(=O)O[C@@H]1CN2CCC1CC2 (stereo partly drawn) [Example 5, (S)-quinuclidin-3-yl (7-(2-(methoxymethoxy)phenyl)chroman-4-yl)carbamate]	29.2	3.71	
COCOc1cccc(-c2ccc3c(c2)OCCC3NC(=O)O[C@@H]2CN3CCC2CC3)c1 (stereo partly drawn) [Example 6, (S)-quinuclidin-3-yl (7-(3-(methoxymethoxy)phenyl)chroman-4-yl)carbamate]	7.18	0.67	
COCCOc1ccccc1-c1ccc2c(c1)OCCC2NC(=O)O[C@@H]1CN2CCC1CC2 (stereo partly drawn) [Example 7, (S)-quinuclidin-3-yl (7-(2-(2-methoxyethoxy)phenyl)chroman-4-yl)carbamate]	34.1	3.28	
COCCOc1cccc(-c2ccc3c(c2)OCCC3NC(=O)O[C@@H]2CN3CCC2CC3)c1 (stereo partly drawn) [Example 8, (S)-quinuclidin-3-yl (7-(3-(2-methoxyethoxy)phenyl)chroman-4-yl)carbamate]	3.59	0.48	
O=C(NC1CCOc2cc(-c3ccccc3F)ccc21)O[C@@H]1CN2CCC1CC2 (stereo partly drawn) [Example 9, (S)-quinuclidin-3-yl (7-(2-fluorophenyl)chroman-4-yl)carbamate]	2.83	1.81	
O=C(NC1CCOc2cc(-c3ccccc3Cl)ccc21)O[C@@H]1CN2CCC1CC2 (stereo partly drawn) [Example 10, (S)-quinuclidin-3-yl (7-(2-chlorophenyl)chroman-4-yl)carbamate]	7.23	2.02	
O=C(NC1CCOc2cc(-c3ccccc3C(F)(F)F)ccc21)O[C@@H]1CN2CCC1CC2 (stereo partly drawn) [Example 11, (S)-quinuclidin-3-yl (7-(2-(trifluoromethyl)phenyl)chroman-4-yl)carbamate]	18.2	10.4	
O=C(NC1CCOc2cc(-c3ccccc3OC(F)(F)F)ccc21)O[C@@H]1CN2CCC1CC2 (stereo partly drawn) [Example 12, (S)-quinuclidin-3-yl (7-(2-(trifluoromethoxy)phenyl)chroman-4-yl)carbamate]	3.28	4.28	
O=C(NC1CCOc2cc(-c3ccc(F)cc3)ccc21)O[C@@H]1CN2CCC1CC2 (stereo partly drawn) [Example 13, (S)-quinuclidin-3-yl (7-(4-fluorophenyl)chroman-4-yl)carbamate]	42.8	8.54	
O=C(NC1CCOc2cc(-c3ccc(Cl)cc3)ccc21)O[C@@H]1CN2CCC1CC2 (stereo partly drawn) [Example 14, (S)-quinuclidin-3-yl (7-(4-chlorophenyl)chroman-4-yl)carbamate]	42.1	9.67	
O=C(NC1CCOc2cc(-c3ccc(C(F)(F)F)cc3)ccc21)O[C@@H]1CN2CCC1CC2 (stereo partly drawn) [Example 15, (S)-quinuclidin-3-yl (7-(4-(trifluoromethyl)phenyl)chroman-4-yl)carbamate]	38.9	11.7	
O=C(NC1CCOc2cc(-c3ccc(OC(F)(F)F)cc3)ccc21)O[C@@H]1CN2CCC1CC2 (stereo partly drawn) [Example 16, (S)-quinuclidin-3-yl (7-(4-(trifluoromethoxy)phenyl)chroman-4-yl)carbamate]	27.8	9.4	
COc1ccccc1-c1ccc2c(c1)OCCC2NC(=O)O[C@@H]1CN2CCC1CC2 (stereo partly drawn) [Example 17, (S)-quinuclidin-3-yl (7-(2-methoxyphenyl)chroman-4-yl)carbamate]	5.5	1.41	

SMILES	IC50 ([1]; Homo sapiens, Jurkat, 72 h) [nM]	IC50 [2] [nM]	IC50 ([1]; read-out: IC50) [nM]
COc1cccc(-c2ccc3c(c2)OCCC3NC(=O)O[C@@H]2CN3CCC2CC3)c1 (stereo partly drawn) [Example 18, (S)-quinuclidin-3-yl (7-(3-methoxyphenyl)chroman-4-yl)carbamate]	6.98	1.54	
COc1ccc(-c2ccc3c(c2)OCCC3NC(=O)O[C@@H]2CN3CCC2CC3)cc1 (stereo partly drawn) [Example 19, (S)-quinuclidin-3-yl (7-(4-methoxyphenyl)chroman-4-yl)carbamate]	30.5	8.32	
CCOc1ccccc1-c1ccc2c(c1)OCCC2NC(=O)O[C@@H]1CN2CCC1CC2 (stereo partly drawn) [Example 20, (S)-quinuclidin-3-yl (7-(2-ethoxyphenyl)chroman-4-yl)carbamate]	19.1	2.86	
CCOc1cccc(-c2ccc3c(c2)OCCC3NC(=O)O[C@@H]2CN3CCC2CC3)c1 (stereo partly drawn) [Example 21, (S)-quinuclidin-3-yl (7-(3-ethoxyphenyl)chroman-4-yl)carbamate]	4.56	0.67	
CCOc1ccc(-c2ccc3c(c2)OCCC3NC(=O)O[C@@H]2CN3CCC2CC3)cc1 (stereo partly drawn) [Example 22, (S)-quinuclidin-3-yl (7-(4-ethoxyphenyl)chroman-4-yl)carbamate]	34.2	4	
CC(C)c1cccc(-c2ccc3c(c2)OCCC3NC(=O)O[C@@H]2CN3CCC2CC3)c1 (stereo partly drawn) [Example 23, (S)-quinuclidin-3-yl (7-(3-isopropylphenyl)chroman-4-yl)carbamate]	0.57	0.48	
CC(C)c1ccc(-c2ccc3c(c2)OCCC3NC(=O)O[C@@H]2CN3CCC2CC3)cc1 (stereo partly drawn) [Example 24, (S)-quinuclidin-3-yl (7-(4-isopropylphenyl)chroman-4-yl)carbamate]	10.7	4.88	
CC(C)(C)c1cccc(-c2ccc3c(c2)OCCC3NC(=O)O[C@@H]2CN3CCC2CC3)c1 (stereo partly drawn) [Example 25, (S)-quinuclidin-3-yl (7-(3-(tert-butyl)phenyl)chroman-4-yl)carbamate]	1.07	0.65	
CC(C)(C)c1ccc(-c2ccc3c(c2)OCCC3NC(=O)O[C@@H]2CN3CCC2CC3)cc1 (stereo partly drawn) [Example 26, (S)-quinuclidin-3-yl (7-(4-(tert-butyl)phenyl)chroman-4-yl)carbamate]	23.3	10.2	
O=C(NC1CCOc2cc(-c3cc(Cl)ccc3Cl)ccc21)O[C@@H]1CN2CCC1CC2 (stereo partly drawn) [Example 27, (S)-quinuclidin-3-yl (7-(2,5-dichlorophenyl)chroman-4-yl)carbamate]	0.54	0.75	
O=C(NC1CCOc2cc(-c3ccc(Cl)c(Cl)c3)ccc21)O[C@@H]1CN2CCC1CC2 (stereo partly drawn) [Example 28, (S)-quinuclidin-3-yl (7-(3,4-dichlorophenyl)chroman-4-yl)carbamate]	24.1	5.19	
O=C(NC1CCOc2cc(-c3cc(Cl)cc(Cl)c3)ccc21)O[C@@H]1CN2CCC1CC2 (stereo partly drawn) [Example 29, (S)-quinuclidin-3-yl (7-(3,5-dichlorophenyl)chroman-4-yl)carbamate]	12.4	2.28	
O=C(NC1CCOc2cc(-c3ccc(F)c(F)c3F)ccc21)O[C@@H]1CN2CCC1CC2 (stereo partly drawn) [Example 30, (S)-quinuclidin-3-yl (7-(2,3,4-trifluorophenyl)chroman-4-yl)carbamate]	48.2	3.92	
O=C(NC1CCOc2cc(-c3cc(F)c(F)cc3F)ccc21)O[C@@H]1CN2CCC1CC2 (stereo partly drawn) [Example 31, (S)-quinuclidin-3-yl (7-(2,4,5-trifluorophenyl)chroman-4-yl)carbamate]	27.6	3.26	
CC1(C)COc2cc(-c3ccc(N4CCOCC4)c(F)c3)ccc2C1NC(=O)O[C@@H]1CN2CCC1CC2 (stereo partly drawn) [Example 204, (S)-quinuclidin-3-yl (7-(3-fluoro-4-morpholinophenyl)-3,3-dimethylchroman-4-yl)carbamate]			0.31
CC1(C)CC(NC(=O)O[C@@H]2CN3CCC2CC3)c2cc(-c3cccc(F)c3)ccc2O1 (stereo partly drawn) [Example 294, (S)-quinuclidin-3-yl (6-(3-fluorophenyl)-2,2-dimethylchroman-4-yl)carbamate]		145	
